Measurements as given in patent US20250255821A1, “SOLID DISPERSIONS COMPRISING A SGC STIMULATOR” (Cyclerion Therapeutics, Inc., priority 2015, published 2025).

Assay: Solubility of Compound I in aqueous media
Type: physicochemical
Conditions: pH independent

OC(CNc1nc(-c2cc(-c3ccon3)n(Cc3ccccc3F)n2)ncc1F)(C(F)(F)F)C(F)(F)F [Compound I, 1,1,1,3,3,3-hexafluoro-2-(((5-fluoro-2-(1-(2-fluorobenzyl)-5-(isoxazol-3-yl)-1H-pyrazol-3-yl)pyrimidin-4-yl)amino)methyl)propan-2-ol]
Solubility in aqueous media: low solubility
